Results as given in PubChem BioAssay AID602156 (GNF / Scripps Winzeler lab, 2011).
The source made the active and inactive calls. No rule for the calls is given here.

System: P. yoelii liver stage in HepG2-A16-CD81EGFP, imaging
Assay: Plasmodium liver-stage growth inhibition, dose response, imaging, Malaria Box, P. yoelii, HepG2-A16-CD81EGFP (AID 602156);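 also: infected cells exposed to compound for 48 hours before fixation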

SMILES	IC50
Cc1[nH]c2c(C)cccc2c(=O)c1CC=C(Cl)Cl	0.169 µM
CC(C)NC(=O)c1cc(NC(=O)c2cccs2)ccc1N1CCc2ccccc2C1	0.0748 µM
Oc1c(CN2CCN(Cc3ccc4cccnc4c3O)CC2)ccc2cccnc12	0.0966 µM
CCC[n+]1cccc2ccc3cccnc3c21	0.903 µM
O=C(Nc1ccc(-c2nc3ccc(NC(=O)c4ccc(Br)o4)cc3[nH]2)cc1)c1ccc(Br)o1	0.812 µM
CCCCNC(=O)C(CC)Sc1nnc(-c2ccc(C)cc2)c(-c2ccc(C)cc2)n1 (configuration not stated)	0.291 µM
O=C1c2ccccc2-n2c1nc1ccccc1c2=O	0.225 µM
c1ccc(-c2cc(N3CCN(c4ccccn4)CC3)nc(-c3ccccn3)n2)nc1	0.0175 µM
Cc1ccnc(Nc2nc(-c3ccccn3)cs2)c1	0.0956 µM
Cc1nc2cc(-c3ccc(I)cc3)[nH]n2c(=O)c1C	0.119 µM
CCCCCC[P+](N(CCC)CCC)(N(CCC)CCC)N(CCC)CCC	0.0491 µM
Cc1[nH]c2ccc(Br)cc2c(=O)c1CC(C)C	0.244 µM
CCCCCCCn1c2c(c(=N)c3ccccc31)CCC2	0.0765 µM
CCCC1(CCC)NC(=S)N(c2ccc(C)c(C)c2)N1	> 10 µM (inactive)
CCCCN(CCCC)S(=O)(=O)c1ccc(NC(=O)c2ccco2)cc1	0.377 µM
O=C1N(Cc2cc3ccccc3s2)CC2CN(Cc3ccsc3)CCN12 (configuration not stated)	0.0255 µM
CCCCN(CCCC)[P+](N(CCCC)CCCC)(N(CCCC)CCCC)N(CCCC)CCCC	0.0115 µM
N#CC1=C(N)Oc2c3c(c4ccccc4c2C1c1ccc(F)cc1)C(c1ccc(F)cc1)C(C#N)=C(N)O3 (configuration not stated)	3.93 µM
CCCCCCOc1ccc(C(C)=NNC2=NCCN2)cc1[N+](=O)[O-]	0.784 µM
CC(C)(C)C1CCc2[nH]c3ccccc3c(=O)c2C1 (configuration not stated)	0.0983 µM
O=C(NC1CC1)c1ccc(CSCc2ccccc2Cl)o1	0.14 µM
COc1cccc(NC(=O)c2ccc(NCCCN3CC(C)CC(C)C3)c([N+](=O)[O-])c2)c1 (configuration not stated)	0.437 µM
COC(=O)C1=C(C)NC2=C(C(=O)CC(c3ccccc3Cl)C2)C1c1ccc([N+](=O)[O-])cc1 (configuration not stated)	0.842 µM
N=c1c2c(n(Cc3ccc(Cl)cc3)c3c1CCC3)CCC2	0.0911 µM
CCc1nc(N)nc(N)c1-c1ccc(Cl)cc1	0.00215 µM
Clc1ncnc2ncn(Cc3ccccc3)c12	> 10 µM (inactive)

SMILES	IC50
CCCCCCN(C(=O)COc1ccccc1)C(CC)c1nc2ccccc2c(=O)n1-c1cccc(Cl)c1 (configuration not stated)	> 10 µM (inactive)
CCc1noc(C)c1C(=O)NCCN1Cc2ccccc2OC(c2ccsc2)C1 (configuration not stated)	> 10 µM (inactive)
CCOc1ccc(Nc2nc(NCc3ccco3)c3ccccc3n2)cc1	0.105 µM
Fc1ccc(Nc2nc(NCc3ccccc3)c3ccccc3n2)cc1	3.79 µM
COC(=O)c1cc(NC(=S)NC(=O)c2c(OC)cccc2OC)cc(C(=O)OC)c1	> 10 µM (inactive)
c1ccc(-c2csc(Nc3nc4cc5c(cc4s3)OCO5)n2)nc1	0.0789 µM
C/C=C/[P+](c1ccccc1)(c1ccccc1)c1ccccc1	0.0494 µM
CN(C)CCCN(Cc1cc2cc3c(cc2[nH]c1=O)OCO3)C(=S)Nc1cccc(Cl)c1	0.818 µM
CC(C)c1nc(N2CCN(C(=O)Nc3ccccc3)CC2)c(C#N)c2c1COC(C)(C)C2	1.02 µM
CCOC(=O)c1ccc(OCC2c3cc(OC)c(OC)cc3CCN2C(=O)c2ccc([N+](=O)[O-])cc2)cc1 (configuration not stated)	> 10 µM (inactive)
O=C(Nc1ccc(-c2nc3ccccc3[nH]2)cc1)c1ccc(-c2ccc(Cl)cc2)o1	6.65 µM
COc1ccc(C2N(Cc3ccccc3)c3ccccc3N2Cc2ccccc2)cc1	0.121 µM
CCCc1nc2ccc(NC(=O)c3ccccc3F)cc2c(=O)n1Cc1ccc(-c2ccccc2)cc1	1.73 µM
CCOc1ccc(N2C(N)=NC(N)=NC2(C)C)cc1	0.0468 µM
C[C@@H]1CCC[C@@H](C[C@H]2Cc3cc(O)cc(O)c3C(=O)O2)O1	0.112 µM
O=C1Nc2ccccc2C12Nc1ccccc1-c1nc3ccccc3n12 (configuration not stated)	> 10 µM (inactive)
COc1ccc2cc3[n+](cc2c1OC)CCc1cc2c(cc1-3)OCO2	0.548 µM
COC(=O)c1c(-c2c(Cl)cccc2Cl)noc1NC(=O)NN1CCCCC1	0.647 µM
Cc1ccc(-n2c(-c3ccccc3)cc(C=NNC(=O)c3cccc(O)c3)c2-c2ccccc2)cc1	0.0202 µM
OCCNc1nc(Nc2ccccc2)nc2ccccc12	0.0479 µM
Cn1ncnc2c(=O)n(C)c(=O)nc1-2	0.103 µM
N#Cc1c2c(c(N3CCN(c4ccccn4)CC3)n3c1nc1ccccc13)CCC2	> 10 µM (inactive)
COc1ccc(Nc2cc(C)nc(NCc3ccccc3)n2)cc1	0.636 µM
Cc1ccc2[nH]c(C)c(Br)c(=O)c2c1	0.253 µM
Clc1cccc(Nc2nc(NCc3ccco3)c3ccccc3n2)c1	0.383 µM
CCCc1nc2ccc(NC(=O)c3ccco3)cc2c(=O)n1Cc1ccc(-c2ccccc2)cc1	0.306 µM

SMILES	IC50
COc1cc(OC)c(NC(=O)C2c3ccccc3C(=O)N(C)C2c2ccc(OC)c(OC)c2)cc1Cl (configuration not stated)	> 9.13 µM (inactive)
C1CCC(NP2(NC3CCCCC3)=NP(NC3CCCCC3)(NC3CCCCC3)=NP(NC3CCCCC3)(NC3CCCCC3)=N2)CC1	0.0186 µM
Cc1cc(OC(C)C(=O)N2CCc3ccccc32)ccc1Cl (configuration not stated)	0.776 µM
O=c1c2c([nH]c3ccccc13)CCCCCC2	0.727 µM
CCCCC(=O)NC(c1cccc([N+](=O)[O-])c1)c1ccc2cccnc2c1O (configuration not stated)	0.449 µM
Cc1[nH]c2ccccc2c(=O)c1Br	0.214 µM
CCc1cc2c(cc1-c1csc(N=C(N)N)n1)C(C)(C)CCC2(C)C	2.9 µM
N#CCSc1nc2ccccc2c2nc(CCc3c[nH]c4ccccc34)nn12	> 10 µM (inactive)
Cc1oc2c(c1C(=O)NCCCn1ccnc1)C(=O)c1ccccc1C2=O	0.119 µM
CCCCc1c(CCC)c(=N)c2ccccc2n1C	0.244 µM
c1ccc(-c2nn(-c3ccccc3)[n+](-c3ccccc3)n2)cc1	0.107 µM
CCOc1ccc2ncc(S(=O)(=O)c3ccc(OC)cc3)c(N3CCN(C)CC3)c2c1	0.0107 µM
CC(c1nc2ccc(Cl)cc2c(=O)n1C)N1CCN(S(=O)(=O)c2cccc3ccccc23)CC1 (configuration not stated)	0.0223 µM
COc1ccc2[nH]c3ccccc3c(=O)c2c1	0.135 µM
CCCCCC[n+]1ccccc1/C=C/c1ccc(N(C)C)cc1	0.0559 µM
Cc1ccccc1N=Nc1ccc(NC(=O)c2ccco2)c(C)c1	0.299 µM
CC1(C)N=C(N)N=C(N)N1c1ccc(Oc2ccc(Cl)cc2)c(Cl)c1	0.073 µM
CC1(C)N=C(N)N=C(N)N1c1ccc(F)cc1	0.0189 µM
CCCCCCCc1cc(O)c2c3c(c(=O)oc2c1)CCC(C)C3 (configuration not stated)	0.247 µM
Cc1cccc(N2C(N)=NC(N)=NC2(C)C)c1	0.00425 µM
CCN(CC)CCCC(C)Nc1c2ccc(Cl)cc2nc2ccc(OC)cc12 (configuration not stated)	0.166 µM
CCCN(CCC)[P+](CCC)(c1ccc([P+](CCC)(N(CCC)CCC)N(CCC)CCC)cc1)N(CCC)CCC	0.28 µM
CC(=O)Nc1ccc(-c2nc(-c3ccc(Oc4ccc(-c5[nH]c(-c6ccc(NC(C)=O)cc6)nc5-c5ccccc5)cc4)cc3)c(-c3ccccc3)[nH]2)cc1	> 3.73 µM (inactive)
O=[N+]([O-])c1cccc(C(Nc2nccs2)c2ccc3cccnc3c2O)c1 (configuration not stated)	0.358 µM
CC(=O)Nc1nc(C)c(-c2csc(Nc3ccc(C)cc3)n2)s1	1.89 µM
